Where two headings read alike, the source gives them in different places.
Assays:
[1] = cited from earlier work
[2] = Stability and packaging suitability, storage at 55° C. (Example 10); type: physicochemical
Description: The stability and packaging suitability of various materials was studied. In these studies, metofluthrin (14 mg) was applied to A4 sized 30 gsm paper substrates via wet and dry application at ambient temperature. The samples were placed in pouches prepared from the packaging materials under investigation, sealed tightly and stored at 55° C. After periods of one and two weeks, samples were removed from storage and the dosed paper substrates were measured for metofluthrin content. The packaging materials studied were glass, PVC, amorphous PET (APET), crystalline PET (CPET), aluminium foil, heat sealable polyester films, acrylonitrile methyl acrylate copolymer and PEPET. For the wet dosing of metofluthrin on the paper substrate, the metofluthrin was dissolved in Exxsol D80 or Norpar 12 and the resulting solution applied to the substrate. For dry application, the metofluthrin was dissolved in acetone/ethanol (1:1 by volume) and applied to the substrate. The solvent was then allowed to evaporate over a period of 5-10 minutes.

[3] = Emanation rate from 50 gsm A4 paper dosed with different amounts (Example 6); type: physicochemical; conditions: A4 50 gsm paper, dry dosing in acetone/ethanol (1:1), 25 mg to approximately 5 mg, 28° C., low air flow
Description: A study involving dosing 50 gsm paper with different amounts of metofluthrin was made to investigate the affect on the emanation rate from this substrate. Three samples of white (A4) paper (50 gsm) each having a surface area of 1250 cm^2 were dosed with metofluthrin (25, 20 and 14 mg) dissolved in acetone/ethanol (1:1) using the dry dosing technique. The papers were aged in a chamber at 28° C. with low air flow for up to a maximum of 214 hours. The amount of metofluthrin remaining on the paper substrate was measured from time 0 hours to 214 hours. The plot obtained for the emanation rate of metofluthrin from the 25 mg dosed samples was used to estimate the time it would take for 20 and 14 mg of metofluthrin to remain on the samples.

[4] = Emanation rate from 18 gsm paper dosed with different solvents (Example 9); type: physicochemical; conditions: 14 mg on A4 18 gsm tissue paper, 28° C.
Description: A study of the metofluthrin emanation rate from 18 gsm paper dosed with different solvents was made.
Tissue paper (18 gsm) having an effective surface area of 1250 cm^2 (A4) was dosed with metofluthrin (14 mg) prepared in a range of solvents. The papers were then aged in a chamber at 28° C. with low airflow for up to a maximum of 168 hours. The amount of metofluthrin remaining on the paper substrate was measured from time 0 hours to 168 hours. The following solvents were used:
The inventors have concluded that linear release kinetics are observed for metofluthrin emanating from paper substrates and accordingly, the line of best fit was fitted to obtain the linear equation to enable the rate of emanation to be determined: […]

[5] = Emanation rate from 18 gsm paper honeycomb, wet dosed in Norpar 12 (Example 7); type: physicochemical; conditions: 30 mg on 18 gsm honeycomb, estimated surface area 2199 cm^2, wet dosed in Norpar 12, 28° C., low airflow
Description: A study involving dosing 18 gsm paper configured into a honeycomb format with an estimated surface area of 2199 cm^2 with metofluthrin (30 mg) was made to determine the emanation rate from this substrate.
The metofluthrin was dissolved in Norpar 12 and dosed on to the substrate using the wet dosing technique. The papers were hung and aged in a chamber at 28° C. with low airflow for up to a maximum of 80 hours. The amount of metofluthrin remaining on the paper substrate was measured from time 0 hours to 80 hours. The plot obtained for the amount of metofluthrin remaining on samples as a function of time was used to calculate the release rate from this format.

[6] = tested on: Aedes aegypti mosquitoes; assay: Knockdown studies in a 40 m^3 test chamber with paper dosed with metofluthrin; type: in vivo
Description: The inventors have carried out a number of knockdown studies for the control of mosquitoes using paper surfaces impregnated and/or dosed with the vapour active insecticide metofluthrin. The active was applied to each paper surface as a solution in acetone/ethanol (1:1).
Tests were carried out in a 40 m^3 test chamber. The temperature was approximately 28° C. Mixed sex Aedes aegypti mosquitoes were used, aged for 7-10 days after emergence. Up to 200 mosquitoes were introduced into the chamber for each test. Three replicates were done for each treatment. Knocked down mosquitoes were collected at the end of each assessment period and counted.
Knockdown studies against the Dengue mosquito Aedes aegypti using three surface areas a) A2, b) A3 and c) A4 of 18 gsm paper in the above test chamber were carried out. Each paper was treated with 150 mg of metofluthrin. A mosquito coil containing 0.04% Prallethrin was included as a reference control.
A knockdown study against the Dengue mosquito Aedes aegypti using aged paper was conducted. The test involved treating 18 gsm paper of A4 surface area with 2 mg of metofluthrin at 28° C. for up to 12 hours. The treated paper was hung in the centre of the above chamber. A mosquito coil containing 0.04% prallethrin was included in the trial as a reference control.

[7] = Emanation rate from 30 gsm paper dosed with different solvents (Example 8); type: physicochemical; conditions: 14 mg on A4 30 gsm paper, 28° C.
Description: A study of the metofluthrin emanation rate from 30 gsm paper dosed with different solvents was made.
White (A4) paper (30 gsm) having a surface area of […] was dosed with metofluthrin (14 mg) prepared in a range of solvents, as listed below. The papers were aged in a chamber at 28° C. with low air flow for up to a maximum of 168 hours. The amount of metofluthrin remaining on the paper substrate was measured from time 0 hours to 168 hours. The following solvents were used:
The inventors have concluded that linear release kinetics are observed for metofluthrin emanating from paper substrates and accordingly, the line of best fit was fitted to obtain the linear equation to enable the rate of emanation to be determined.

## C#CC(OC(=O)C1C(C=C(C)C)C1(C)C)/C(C)=C/CC (centres unmarked) [empenthrin]
[1]; 23.6° C.
  vapour pressure (volatility at ambient temperature): 14 mPa

## CC=CC1C(C(=O)OCc2c(F)c(F)c(COC)c(F)c2F)C1(C)C (racemic) [metofluthrin, 2,3,5,6-tetrafluoro-4-(methoxymethyl)benzyl-(EZ)-(1RS,3RS;1RS,3SR)-2,2-dimethyl-3-(prop-1-enyl)cyclopropanecarboxylate]
[2]; packaging APET, dry dosing, acetone/ethanol (1:1), 1 week at 55° C.
  metofluthrin recovered from paper substrate (%): 87%
[2]; packaging APET, dry dosing, acetone/ethanol (1:1), 2 weeks at 55° C.
  metofluthrin recovered from paper substrate (%): 82%
[2]; packaging APET, wet dosing, Exxsol D80, 1 week at 55° C.
  metofluthrin recovered from paper substrate (%): 95%
[2]; packaging APET, wet dosing, Exxsol D80, 2 weeks at 55° C.
  metofluthrin recovered from paper substrate (%): 100%
[2]; packaging Acrylonitrile methyl acrylate copolymer, wet dosing, Norpar 12, 1 week at 55° C.
  metofluthrin recovered from paper substrate (%): 98%
[2]; packaging Acrylonitrile methyl acrylate copolymer, wet dosing, Norpar 12, 2 weeks at 55° C.
  metofluthrin recovered from paper substrate (%): 99%
[2]; packaging Aluminium foil, dry dosing, acetone/ethanol (1:1), 1 week at 55° C.
  metofluthrin recovered from paper substrate (%): 99%
[2]; packaging Aluminium foil, dry dosing, acetone/ethanol (1:1), 2 weeks at 55° C.
  metofluthrin recovered from paper substrate (%): 98%
[2]; packaging Aluminium foil, wet dosing, Exxsol D80, 1 week at 55° C.
  metofluthrin recovered from paper substrate (%): 99%
[2]; packaging Aluminium foil, wet dosing, Exxsol D80, 2 weeks at 55° C.
  metofluthrin recovered from paper substrate (%): 100%
[2]; packaging CPET, dry dosing, acetone/ethanol (1:1), 1 week at 55° C.
  metofluthrin recovered from paper substrate (%): 98%
[2]; packaging CPET, dry dosing, acetone/ethanol (1:1), 2 weeks at 55° C.
  metofluthrin recovered from paper substrate (%): 99%
[2]; packaging CPET, wet dosing, Exxsol D80, 1 week at 55° C.
  metofluthrin recovered from paper substrate (%): 96%
[2]; packaging CPET, wet dosing, Exxsol D80, 2 weeks at 55° C.
  metofluthrin recovered from paper substrate (%): 100%
[2]; packaging Glass (bottle), dry dosing, acetone/ethanol (1:1), 1 week at 55° C.
  metofluthrin recovered from paper substrate (%): 90%
[2]; packaging Glass (bottle), dry dosing, acetone/ethanol (1:1), 2 weeks at 55° C.
  metofluthrin recovered from paper substrate (%): 81%
[2]; packaging Glass (bottle), wet dosing, Exxsol D80, 1 week at 55° C.
  metofluthrin recovered from paper substrate (%): 100%
[2]; packaging Glass (bottle), wet dosing, Exxsol D80, 2 weeks at 55° C.
  metofluthrin recovered from paper substrate (%): 98%
[2]; packaging PEPET, wet dosing, Norpar 12, 1 week at 55° C.
  metofluthrin recovered from paper substrate (%): 78%
[2]; packaging PEPET, wet dosing, Norpar 12, 2 weeks at 55° C.
  metofluthrin recovered from paper substrate (%): 77%
[2]; packaging PVC, dry dosing, acetone/ethanol (1:1), 1 week at 55° C.
  metofluthrin recovered from paper substrate (%): 64%
[2]; packaging PVC, dry dosing, acetone/ethanol (1:1), 2 weeks at 55° C.
  metofluthrin recovered from paper substrate (%): 46%
[2]; packaging PVC, wet dosing, Exxsol D80, 1 week at 55° C.
  metofluthrin recovered from paper substrate (%): 73%
[2]; packaging PVC, wet dosing, Exxsol D80, 2 weeks at 55° C.
  metofluthrin recovered from paper substrate (%): 44%
[2]; packaging heat sealable polyester films, dry dosing, acetone/ethanol (1:1), 2 weeks at 55° C.
  metofluthrin recovered from paper substrate (%): 92%
[2]; packaging heat sealable polyester films, wet dosing, Exxsol D80, 2 weeks at 55° C.
  metofluthrin recovered from paper substrate (%): 100%
[3]
  emanation rate when varying initial amount dosed: constant
[4]; solvent Dowanol DPM, wet dosing, relative to acetone/ethanol
  Release Rate Index: 1.20
[4]; solvent Dowanol TPM, wet dosing, relative to acetone/ethanol
  Release Rate Index: 1.24
[4]; solvent Isopar L, wet dosing, relative to acetone/ethanol
  Release Rate Index: 1.75
[4]; solvent Sasol C12-13, wet dosing, relative to acetone/ethanol
  Release Rate Index: 1.63
[4]; solvent acetone/ethanol (1:1), dry dosing (reference = 1)
  Release Rate Index: 1.00
[4]; solvent n-pentane, dry dosing, relative to acetone/ethanol
  Release Rate Index: 1.50
[5]
  emanation rate: 0.22 mg/h
[6]; 2 mg on A4 18 gsm paper aged at 28° C., for up to 4 hours, 40 m^3 chamber
  knockdown: greater than 40%
[6]; 2 mg on A4 18 gsm paper, at 4 hours of aging at 28° C.
  effectiveness relative to control (mosquito coil 0.04% prallethrin): twice as effective as the control
[6]; A2, A3 and A4 18 gsm paper each treated with 150 mg, 40 m^3 chamber, approx. 28° C., control = mosquito coil containing 0.04% Prallethrin
  knockdown effectiveness compared with reference control: more effective than the control
[7]; solvent Acetone/ethanol (1:1), dry dosing (reference = 1)
  Release Rate Index: 1.00
[7]; solvent Exxsol D40, wet dosing, relative to acetone/ethanol
  Release Rate Index: 1.40
[7]; solvent Exxsol D80, wet dosing, relative to acetone/ethanol
  Release Rate Index: 1.41
[7]; solvent Exxsol D140, wet dosing, relative to acetone/ethanol
  Release Rate Index: 0.25
[7]; solvent HoTung C11-14, wet dosing, relative to acetone/ethanol
  Release Rate Index: 1.37
[7]; solvent Isopar G, wet dosing, relative to acetone/ethanol
  Release Rate Index: 1.58

## Cc1c(F)c(F)c(COC(=O)[C@@H]2[C@H](/C=C(\Cl)C(F)(F)F)C2(C)C)c(F)c1F (racemic) [tefluthrin]
[1]; 20° C.
  vapour pressure (volatility at ambient temperature): 8.4 mPa
[1]; 40° C.
  vapour pressure (volatility at ambient temperature): 50 mPa

## CC1(C)[C@H](C=C(Cl)Cl)[C@H]1C(=O)OCc1c(F)c(F)c(F)c(F)c1F [fenfluthrin]
[1]; 20° C.
  vapour pressure (volatility at ambient temperature): 1 mPa

From patent US20080226685A1, “Product and Method for Controlling Flying Insects” (Reckitt Benckiser (Australia) Pty Limited, priority 2003, published 2008)
